Results on five compounds are retold here after US7115740B2, “Pyrimido compounds having antiproliferative activity” (Hoffmann-la Roche Inc., priority 2003, dated 2006).

The melting point is the temperature, or range, at which the solid turns liquid. Take `COc1ccc(N2Cc3cnc(Nc4ccccc4)nc3N([C@@H](C)CO)C2=O)cc1` [Example 15d, (S)-(+)-1-(2-hydroxy-1-methyl-ethyl)-3-(4-methoxy-phenyl)-7-phenylamino-3,4-dihydro-1H-pyrimido[4,5-d]pyrimidin-2-one]: the melting point lay within 140 to 147 °C. Under `COc1ccc(N2Cc3cnc(Nc4ccc(F)cc4)nc3N([C@@H](C)CO)C2=O)c(F)c1` [Example 21b, (S)-(+)-3-(2-fluoro-4-methoxy-phenyl)-7-(4-fluoro-phenylamino)-1-(2-hydroxy-1-methyl-ethyl)-3,4-dihydro-1H-pyrimido[4,5-d]pyrimidin-2-one] stands 173 to 177 °C; under `COc1ccc(N2Cc3cnc(Nc4ccccc4)nc3N([C@H](C)CO)C2=O)cc1` [Example 23d, (R)-(−)-1-(2-hydroxy-1-methyl-ethyl)-3-(4-methoxy-phenyl)-7-phenylamino-3,4-dihydro-1H-pyrimido[4,5-d]pyrimidin-2-one], 156 to 163 °C. In turn, `COc1ccc(N2Cc3cnc(Nc4ccccc4)nc3N(C[C@@H](C)O)C2=O)cc1` [Example 28d, (R)-(−)-1-(2-hydroxy-propyl)-3-(4-methoxy-phenyl)-7-phenylamino-3,4-dihydro-1H-pyrimido[4,5-d]pyrimidin-2-one] returned a melting point of 189 to 193 °C.

For the compound `COc1ccc(N2Cc3cnc(Nc4ccccc4)nc3N(C[C@H](C)O)C2=O)cc1` [Example 31d, (S)-(+)-1-(2-hydroxy-propyl)-3-(4-methoxy-phenyl)-7-phenylamino-3,4-dihydro-1H-pyrimido[4,5-d]pyrimidin-2-one], the melting point was 188 to 193 °C.
